In patent US20060211606A1, “Peptides” (priority 2005, published 2006):
“Also recorded” adds a separate entry of the source. *1 amine or outer side, *2 acyl side, *3 side chain or, on linkers, in order; H or OH if unused. [ ]: non-standard residue; d: D form. PEG (Jeffamine) = not defined here; Suc = O=C(CCC(=O)[*:2])[*:1]

What was measured:
[1] = test system: primary human muscle cell cultures; assay: Creatine phosphokinase (CPK) assay of myogenic differentiation / myotube formation; type: cell-based; details: for effect on myoblast differentiation and myotube formation: differentiation medium, 48 hours, peptide alone (IGF-I 10 ng/ml)
Method: This assay was performed using previously published protocols [Auluck et al., 2005]. Measurement of CPK allows for the quantitative comparison of myogenesis [Goto et al., 1999], as it is a marker of myotube formation. The enzyme CPK catalyzes the reversible phosphorylation of adenosine-5-diphosphate (ADP) to form adenosine-5-triphosphate (ATP) and free creatine. The reaction may be followed in either direction by measuring the formation of inorganic phosphorus, an end-product of the reaction which is proportional to CPK activity. This was measured using the calorimetric method based on the generation of inorganic phosphate [Fiske and Subbarow, 1925] procedure. This was then expressed in terms of the protein content of the culture.
Previously expanded primary human muscle cell cultures were re-plated at 10×10^4 cells/well in 0.2% gelatin coated 96 well plates. […] (Sigma-Aldrich IGF-I ER2). After 48 hours, cells were washed twice with ice cold PBS and then stored frozen in 0.5 mM glycine buffer (pH 6.75) at −70° C. Fixed cells were lysed by rapid thawing and CPK assay kit used according to manufacturers instructions (Sigma-Aldrich). The protein concentration of each sample was determined against an albumin standard curve using the Pierce Micro BCA Kit (PerBio Science, UK Ltd., Northumberland, UK).

[2] = test system: rat organotypic hippocampal cultures; assay: TBH oxidative stress in rat organotypic hippocampal cultures, PI-stained cell death; type: cell-based; details: for time for which the neuroprotective effect was observed: rat hippocampal slices after TBH challenge; for protection against TBH-induced cell death: rat hippocampal slices, 24 hours, peptide 10 ng/ml as printed
Method: Hippocampal slices were prepared from 7-10 days old Wistar rats according to the method of Stoppini et al (1991) with minor modifications according to Sarnowska (2002). Briefly, rats were anaesthetised with Vetbutal, ice-cooled and decapitated. Brains were quickly removed to ice-cold working solution pH 7.2: 96% of HBSS/HEPES-(Ca2^+ and Mg2^+ free) containing 2 mmol/L L-glutamine, 5 mg/ml glucose, 1% amphotericine B, 0.4% penicillin-streptomycin. Hippocampi were separated and cut into 400 μm slices using McIlwain tissue chopper. […] Four selected slices were settled on each membrane. Slices were cultivated for two weeks at 32° C. in 5% CO2 atmosphere of 100% humidity. The viability of the slices was checked daily under the light microscopy and evaluated additionally on the day of experiment by propidium iodide staining and observed under fluorescent microscope (Zeiss Axiovert 25) with MC-10095 camera (Carl Zeiss Jena GmbH) in order to record initial PI uptake (Sarnowska, 2002).
Oxidative stress was induced after 14 days in culture by adding 30 mM TBH ([…]) for 3 hours. After that time the slices were transferred to the fresh culture medium. Resulting cell death was assessed 24 and 48 h after the beginning of the experiment.
In order to investigate a pathway in which the MGF acts, a specific anti-IGF-1 receptor (AB-1) blocking antibody (Oncogene) was included in the medium 1 hour before the slices were exposed to TBH and MGF or IGF-1 peptide. The concentration of the antibody (1000 ng/ml) was used according to the manufacturer's recommendation.
To obtain detailed images of the slices, a confocal laser scanning microscope (Zeiss LSM 510) was used. A helium-neon laser (543 nm) was used for the excitation of propidium iodide (PI). […] Quantitative measurement of tissue deterioration was performed using image analyser KS 300 (Carl Zeiss Jena GmbH).
Cell damage was quantified on fluorescence images of PI-stained cultures 24 and 48 hours after TBH challenge. The relative extent of cell death was calculated from each standardized CA1 region as follows: % of dead cells=(experimental fluorescent intensity (FI)−background FI)/(maximal FI−background FI)×100, where maximal FI was obtained by killing all cells with exposure to 100 mM glutamate.
All the measurements were repeated for 5 independent culture preparations and 8 slices were used for each experimental condition. Statistical significance of the differences between the results was calculated using one-way Anova followed by Dunnet's test, (GraphPad Prism 3.02).
Rat brain slices were isolated following induction of localized damage by TBH (tert-butyl hydroperoxide) as discussed above. The resulting cell death in treated and non-treated brain slices was determined. […]

“stabilised peptide: SEQ ID NO: 15 with D-Arginine at positions 14 and 15, N-terminus attached to PEG (Jeffamine) via succinic acid bridge, amidated at C-terminus ({PEG (Jeffamine)-Suc}-YQPPSTNKNTKSQ[dR][dR]KGSTFEEHK-NH2; reading uncertain)” was tested, and the “effect on myoblast differentiation and myotube formation” value [1] was “no effect on myotube formation; also recorded: did not facilitate primary myoblast differentiation and myotube formation”, the “effect on differentiation in the presence of 10 ng/ml IGF-I” value ([1]; stabilised peptide with 10 ng/ml IGF-I, dose-dependent) was “prevented differentiation to the myoblast fusion competent stage” and the “time for which the neuroprotective effect was observed” value [2] was ≥ 48 h. The “protection against TBH-induced cell death” value [2] was 85%.
With “IGF-I: IGF-I receptor binding domain encoded by Exons 3 and 4, common to all splice variants, approximately 70 amino acids [reference compound]” the “effect on myoblast differentiation and myotube formation” value [1] was “apparently stimulates myotube formation”, the “effect on myoblast differentiation and myotube formation” value ([1]; listed as mature IGF-I) was “enhanced differentiation” and the “time for which the neuroprotective effect was observed” value [2] was “up to 24 hours”. For the same substance, the “protection against TBH-induced cell death” value [2] was 72%.
